Reference: US4791215A, “Derivatives of glutamic acid and aspartic acid” (priority 1984, dated 1988)

Key:
[1] = system: morphine analgesia; assay: Increase in analgesia of morphine, Tail Flick Test (Experiment 1); assay type: in vivo, rats; conditions: for percentage variation of latency of pain sensation / M (10-90) ± SE, mean percentage variation of latency: compound 10 mg/kg i.p. + morphine 2 mg/kg; for M (10-90) ± SE, mean percentage variation of latency: mean 10-90 min; for Power ratio with respect to morphine alone: rat, in vivo
Method: Experiment No: 1 Increase in analgesia of analgesic-narcotic drugs in rats by the Tail Flick Test
The method is that described by Harris et al. (J. Pharmacol. Exp. Ther. 143 (1964) 141-148).
Male rats are used having a weight of about 150-200 g which have not fasted. A point on the tail is chosen and irradiated by a heat source (75° C.) and the time (in seconds) for which the animal remains without moving its tail is measured.
A maximum period of time of 8 seconds under the heat source is chosen, after which the animal is, in any case, removed to avoid tissue damage. The measurement is effected before (controls) and after treatment with the drugs.
The percentage variation is calculated for each individual animal by the following formula: [formula] The measurements were carried out 10, 20, 30, 45, 60 and 90 minutes after treatment with the analgesics.

[2] = system: CCK-8 induced contraction of guinea pig gall bladder; assay: Anti-CCK activity on gall bladder strips in vitro; conditions: CCK-8 10 ng/ml
Method: ANTI-CCK ACTIVITY ON GUINEA PIG GALL BALDDERS IN VITRO
A longitudinal strip of guinea pig gall bladder was placed in a bath of isolated members in the presence of Krebs at a temperature of 32° C. with continuous oxygenation with an oxygen-CO2 mixture (95-5V/V).
The isometric contractions were detected by means of a force transducer and recorded.
The gall bladder was made to contract with the use of a 10 ng/ml concentration of CCK-8; the antagonistic activity of the compounds of the invention on the contracting effect of the CCK was determined with the use of different concentrations and the ED 50 value, that is the concentration in μg/ml of a compound which could antagonise 50% of the contracting effect of the CCK, was determined.

Compound	percentage variation of latency of pain sensation ([1]; 10') [%]	percentage variation of latency of pain sensation ([1]; 20') [%]	percentage variation of latency of pain sensation ([1]; 30') [%]	percentage variation of latency of pain sensation ([1]; 45') [%]	percentage variation of latency of pain sensation ([1]; 60') [%]	percentage variation of latency of pain sensation ([1]; 90') [%]	M (10-90) ± SE, mean percentage variation of latency [1] [%]	Power ratio with respect to morphine alone [1]	ED50 (concentration antagonising 50% of contracting effect of CCK-8) [2] [µg/mL]
N#Cc1ccc(C(=O)NC(CCC(=O)N2CCCCC2)C(=O)O)cc1 [Compound D-10]	41.0 ± 8.0	58.6 ± 17.0	59.8 ± 17.0	62.7 ± 15.0	47.0	35.4 ± 11.0	50.8 ± 11.2	1.70	> 200
N#Cc1cccc(C(=O)NC(CC(=O)O)C(=O)NC2CCCCC2)c1 (stereo not drawn) [Compound C-23]	33.1 ± 19.0	49.9 ± 15.0	58.2 ± 17.0	68.3 ± 20.0	72.0	58.7 ± 22.0	56.7 ± 14.0	1.90	> 200
CCCCN(CCCC)C(=O)C(CCC(=O)O)NC(=O)c1ccc(Br)cc1 (stereo not drawn) [Compound C-25]	59.7 ± 15.0	49.0 ± 13.0	71.5	61.9 ± 22.0	49.0 ± 22.0	20.4 ± 6.0	51.9 ± 18.0	1.74	30.3
CCCCN(CCCC)C(=O)C(CCC(=O)O)NC(=O)c1cc(Cl)c(Cl)c(Cl)c1 (stereo not drawn) [Compound C-11]	25.2 ± 4.0	37.6 ± 16.0	50.9 ± 11.0	54.4 ± 9.0	35.8	18.7 ± 10.0	37.1 ± 14.0	1.24	0.85
CCCN(CCC)C(=O)C(CCC(=O)O)NC(=O)c1ccc(Cl)cc1 (stereo not drawn) [Compound C-3]	44.4	83.7 ± 16.3	77.8 ± 17.1	46.4 ± 24.5	73.6 ± 17.7	45.8 ± 22.8	61.9 ± 18.2	2.10	34.4
CCCN(CCC)C(=O)C(CCC(=O)O)NC(=O)c1ccccc1Br (stereo not drawn) [Compound C-14]	36.5 ± 28.4	76.0 ± 12.7	79.3 ± 10.6	77.0 ± 6.7	98.3 ± 1.3	71.9 ± 13.2	73.1 ± 20.0	2.45	118.4
CCCN(CCC)C(=O)C(CC(=O)O)NC(=O)c1cccc(C#N)c1 (stereo not drawn) [Compound C-22]	82.7 ± 9.4	67.6 ± 18.0	88.4 ± 9.3	83.3	93.6 ± 6.4	53.8 ± 14.9	78.2 ± 15.0	2.62	> 200
O=C(NC(CCC(=O)N1CCCCC1)C(=O)O)c1ccc(Cl)c(Cl)c1 [Compound D-9]	88.5 ± 19.0	74.0 ± 16.0	70.9 ± 16.0	73.0 ± 15.0	84.5 ± 12.0	79.9 ± 12.0	75.1 ± 6.0	2.52	> 200
Cc1ccc(C(=O)NC(CCC(=O)N(C)C)C(=O)O)cc1C [Compound D-12]	45.4 ± 23	63.9 ± 15	84. ± 16	100 ± 0	78.5 ± 15	56.1 ± 22	71.3 ± 20	2.39	> 300
CCCCN(CCCC)C(=O)C(CCC(=O)O)NC(=O)c1ccc(Cl)cc1Cl (stereo not drawn) [Compound C-10]	56.9 ± 25.8	66.4 ± 21.4	72.9	70.1 ± 18.5	66.2 ± 21.3	63.2 ± 23.4	66.0 ± 5.6	2.21	43.7
CCCCNC(=O)C(CCC(=O)O)NC(=O)c1cccc(C#N)c1 (stereo not drawn) [Compound C-21]	48.6 ± 19.0	37.4 ± 12.0	54.8 ± 19.0	44.6 ± 15.0	64.0 ± 18.0	54.9 ± 10.0	50.7	1.70	> 200
Cc1ccc(C(=O)NC(CCC(=O)O)C(=O)NC2CCCCC2)cc1C (stereo not drawn) [Compound C-47]	24.5	63.5 ± 18	52.3 ± 17	80.1 ± 22	73.2 ± 17	49.3 ± 19	57.1 ± 20	1.92	35.1
CCCCN(CCCC)C(=O)C(CCC(=O)O)NC(=O)c1cc(Cl)cc(Cl)c1 (stereo not drawn) [Compound C-9]	67.6 ± 11.0	65.8	71.9 ± 17.5	59.1 ± 20.0	52.1 ± 22.0	40.4 ± 18.0	59.5 ± 11.6	2.00	7.40
CCCN(CCC)C(=O)C(CCC(=O)O)NC(=O)c1ccccc1I (stereo not drawn) [Compound C-17]	18.9	37.0 ± 12.0	45.8 ± 18.0	41.0 ± 17.0	39.3 ± 20.0	31.2 ± 18.0	35.5 ± 9.5	1.19	> 200
O=C(NC(CCC(=O)N1CCCCC1)C(=O)O)c1ccc(Br)cc1 [Compound D-7]	31.8 ± 19.0	48.0 ± 16.0	70.5 ± 15.0	73.7 ± 13.0	88.6	32.4 ± 19.0	57.5 ± 23.5	1.93	> 200
